In the assay the test system is MDA-MB-468 breast. The assay can be described thus: growth of human tumour cells (NCI), 48 h.

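Five compound concentrations were applied to cells in 96-well plates for 48 hours; endpoints were derived by simple linear interpolation of the resulting dose-response curve. Abbreviation: GI50, concentration required for 50% inhibition of growth. TGI: concentration producing complete growth inhibition.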

As for `CCOC(=O)c1sc(Nc2ccc(Cl)cc2)nc1C`, the GI50 is 1560 nM and the TGI stood at 4.24 µM.

Turning to `COc1ccc(-c2nc(-c3nc4ccc(OC)cc4[nH]3)cc3c2[nH]c2ccccc23)cc1`, the GI50 was 3160 nM and the TGI was above 100 µM.

Regarding `CC(=O)N=c1ccc2nc3c(cc(N)c4ccccc43)oc-2c1`, the GI50 is 274 nM and the TGI came to 1.4 µM.

As to `Cn1cc(C2=C(c3cn(CCN)c4ccccc34)C(=O)NC2=O)c2ccccc21`, the GI50 was 4730 nM and the TGI was found to be 13.4 µM.

Consider `COc1cc(/C=C2\COc3ccc(O)c(O)c3C2=O)cc(OC)c1`, for which the GI50 is 1910 nM and the TGI worked out at 6.69 µM.

As for `Nc1c(C(=O)Nc2ccccc2Cl)sc2nc3c(cc12)CCCCCC3`, the GI50 was 2250 nM and the TGI worked out at 12 µM.

For the compound `N#Cc1ccnc(N2C(=O)CC[C@H]2C(=O)N(c2cncc(F)c2)[C@H](C(=O)NC2CC(F)(F)C2)c2ccccc2Cl)c1`, the GI50 was 28400 nM and the TGI was above 100 µM.

As to `COC(=O)CCC/C=C\C[C@H]1C=CC(=O)/C1=C/C[C@@H](O)C/C=C\CC(F)(F)F`, the GI50 is 1740 nM and the TGI was found to be 3.77 µM.

Regarding `C[C@H]1[C@H](C)CC[C@]2(C(=O)O)CC[C@]3(C)C(=CC[C@@H]4[C@@]5(C)C/C(=C/c6ccco6)C(=O)C(C)(C)[C@@H]5CC[C@]43C)[C@H]12`, the GI50 was 4070 nM and the TGI came out at 17.4 µM.

`Cc1[nH]c(=O)[nH]c(=O)c1CO`: the GI50 is above 100000 nM and the TGI was above 100 µM.

For the compound `COc1ccc(C2=NN(C(C)=O)C(c3cn(-c4ccccc4)nc3-c3ccc(Cl)cc3)C2)cc1` (stereo not given), the GI50 is above 100000 nM and the TGI is above 100 µM.

For `CSc1nc2sc3cc(Cl)ccc3n2c(=N)c1C#N`, the GI50 was 2130 nM and the TGI came out at 20 µM.

Regarding `CCCc1nc2c(C)cc(-c3nc4ccccc4n3C)cc2n1Cc1ccc(-c2ccccc2C(=O)O)cc1`, the GI50 was 37400 nM and the TGI was above 100 µM.

For `COc1cc2nc(Nc3cccc(F)c3)nc(Nc3cc(C)[nH]n3)c2cc1OC`, the GI50 was 1630 nM and the TGI was 3.23 µM.

Regarding `C=C(C)[C@@H]1CC[C@]2(C)[C@H](CC[C@@H]3[C@H]4[C@H]5OC[C@@]4(CCC5(C)C)CC[C@]32C)[C@@]1(C)CCCN`, the GI50 was 1580 nM and the TGI turned out to be 3.05 µM.

On to `CC(=O)OC[C@]12CC[C@@H](C(=O)/C=C/c3cccnc3)[C@@H]1[C@H]1CC[C@@H]3[C@@]4(C)CC[C@H](OC(C)=O)C(C)(C)[C@@H]4CC[C@@]3(C)[C@]1(C)CC2`, for which the GI50 was 1770 nM and the TGI is 4.41 µM.

Regarding `O=C(CCCCCCNC(=O)C(O)(O)C(F)(F)F)Nc1ccc(Br)cc1`, the GI50 was 821 nM and the TGI was determined as 2.68 µM.

With `NCCC(O)(P(=O)(O)O)P(=O)(O)O`, the GI50 was above 100000 nM and the TGI is above 100 µM.

Take `COC(=O)C1=C(C(=O)OC)C23C=C(C)C1C2=C(C)C1(CC1)[C@@](C)(O)C3=O` (stereo not given in full): the GI50 was 181 nM and the TGI turned out to be 0.421 µM.

For the compound `Cc1ccc(S(=O)(=O)N2CCc3ccc(O)c4c3C2Cc2cc(Cl)ccc2-4)cc1` (stereo not given), the GI50 was 707 nM and the TGI came out at 1.92 µM.

As for `COc1ccc(/C=C/c2n[nH]c3ccc(N4CCOC4=O)cc23)cc1`, the GI50 was 2440 nM and the TGI was found to be 4.72 µM.

For the compound `COc1cc(C(=O)c2cc3c(cc2C)OCO3)cc(OC)c1OC`, the GI50 was 31.1 nM.

Consider `C=C1C(=O)O[C@H]2[C@H]1CC/C(COC(=O)NCc1c[nH]c3ccc(Cl)cc13)=C\CC[C@@]1(C)O[C@@H]21`, for which the GI50 was 913 nM and the TGI stood at 2.5 µM.

Turning to `CCOC(=O)c1c(C(F)(F)F)n([O-])c2ccc(OC)cc2[n+]1=O`, the GI50 was 2580 nM and the TGI was 7.41 µM.

As to `COc1ccc(NC(=O)c2sc3nc(C)c(C(O)c4ccccc4)cc3c2N)cc1` (stereo not given), the GI50 is 1900 nM and the TGI was determined as 70.1 µM.

As to `COC1=CC(c2ccc[nH]2)=N/C1=C\c1[nH]c(C)c(C(=O)CCCCC(=O)Nc2ccccc2)c1C`, the GI50 was 1720 nM and the TGI is 3.66 µM.

In the case of `Nc1ccc(/C=N/Nc2ccnc3c(N)cccc23)c2cccnc12`, the GI50 was 1390 nM and the TGI is 2.99 µM.

With `C[C@@H]1C=C2C(=O)O[C@@H]3CC[C@H](C1)[C@]23O`, the GI50 is 1750 nM and the TGI was determined as 5.5 µM.

As to `CC[C@]12C=CCN3CC[C@]4(C(=C(C(=O)OC)C1)Nc1cc5c(cc14)[C@@H]1[C@H](O5)[C@@H](O)[C@@]4(CC)CC(C(=O)OC)=C5Nc6cc(OC)ccc6[C@@]56CCN1[C@@H]46)[C@@H]32`, the GI50 is 94.4 nM and the TGI was 1.34 µM.

`COc1cc(-c2cc(-c3nc4ccc(Cl)cc4[nH]3)[nH]n2)cc(OC)c1OC`: the GI50 was 2330 nM and the TGI was determined as 13.5 µM.

Consider `Cc1ccc(C)c(-c2csc(Nc3ccc(C)c(C)c3)n2)c1`, for which the GI50 was 63100 nM and the TGI was above 100 µM.

Take `CCCCCCCC[N+](C)(CCCCCCCC)CCCCCCCC`: the GI50 is 202 nM and the TGI was 0.901 µM.

Take `COc1ccc([N+](=O)[O-])c(S(=O)(=O)c2ccc(Cl)cc2)n1`: the GI50 was 1930 nM and the TGI turned out to be 4.76 µM.

Regarding `NS(=O)(=O)c1ccc(CCN=C=S)cc1`, the GI50 was 380 nM and the TGI came out at 2.86 µM.

As for `CC(C)n1c2c([n+](C)c1/C=C/c1ccccc1)C(=O)c1ccccc1C2=O`, the GI50 was below 10 nM and the TGI came to 0.0148 µM.

Turning to `CCCN(CCC)c1ccc(/C=N/NC(=O)c2cccnc2)c(Cl)c1`, the GI50 is 197 nM and the TGI was 0.631 µM.

In the case of `CCn1cnc2c(Nc3cccc(Cl)c3)nc(N[C@@H]3CCCC[C@@H]3N)nc21`, the GI50 is 1860 nM and the TGI turned out to be 4.36 µM.

With `COc1ccccc1CNCCCN1C(=O)c2ccc3c4c(ccc(c24)C1=O)C(=O)N(CCCNCCCN)C3=O`, the GI50 is 246 nM and the TGI stood at 2.24 µM.
